We go through 20 compounds from ChEMBL document CHEMBL1143470, “Synthesis and anticonvulsant activity of 7-alkoxyl-4,5-dihydro-[1,2,4]triazolo[4,3-a]quinolines” (Bioorg Med Chem Lett, 2005).

Data set [1] deals with Mus musculus. The experiment in a line: Concentration producing seizure after 4 hrs tested by ScMet (Subcutaneous pentylenetetrazole test) done after 30 min of administration of 85 mg/kg pentylenetetrazol in mouse; na=no activity. Also on record: dose 85 mg/kg. The format is functional, organism-based.
For data set [2], the species on record is Mus musculus. In words: Concentration of compound producing anticonvulsant drug-induced neurologic deficit after 0.5 hrs done by rotarod ataxia test in mouse; na=no activity. It counts as functional, organism-based.
Data set [3] deals with Mus musculus. The experiment in a line: Concentration producing seizure after 0.5 hrs tested by MES (Maximal ElectroShock test) done after 30 min of administration in mouse; na=no activity. It counts as functional, organism-based.
Data set [4] deals with Mus musculus. In words: Concentration producing seizure after 0.5 hrs tested by ScMet (Subcutaneous pentylenetetrazole test) done after 30 min of administration of 85 mg/kg pentylenetetrazol in mouse; na=no activity. The format is functional, organism-based. On the set-up: dose 85 mg/kg.
Data set [5] relates to Mus musculus. In words: Concentration producing seizure after 4 hrs tested by MES (Maximal ElectroShock test) done after 30 min of administration in mouse; na=no activity. The format is functional, organism-based.
The species entered for data set [6] is Mus musculus. The experiment in a line: Concentration producing anticonvulsant drug-induced neurologic deficit after 4 hrs done by rotarod ataxia test in mouse; na=no activity. It counts as functional, organism-based.
The test system of data set [7] is Mus musculus. In words: Concentration producing seizure after 0.5 hrs tested by ScMet (Subcutaneous pentylenetetrazole test) done after 30 min of administration of 85 mg/kg pentylenetetrazol in mouse.
For data set [8], the system named is Mus musculus. The experiment in a line: Concentration producing seizure after 0.5 hrs tested by MES (Maximal ElectroShock test) done after 30 min of administration in mouse.
For data set [9], the system named is Mus musculus. In words: Anticonvulsant activity of compound expressed in terms of median effective dose (ED50) produced after MES test in mouse by i.p. administration (range 11.5-15.8). The settings on record: ip.
Data set [10] is filed under the species Mus musculus. In words: Protective index (TD50/ED50) produced by compound in mouse after ScMet test.
Data set [11] deals with Mus musculus. The experiment in a line: Anticonvulsant activity of compound expressed in terms of median effective dose (ED50) produced after ScMet test in mouse by i.p. administration (range 12.5-20.6). The settings on record: ip.
Data set [12] is filed under the species Mus musculus. The experiment in a line: Protective index (TD50/ED50) produced by compound in mouse after MES test.
Data set [13] is filed under the species Mus musculus. In words: Concentration of compound producing anticonvulsant drug-inducedneurologic deficit after 0.5 hrs done by rotarod ataxia test in mouse. The settings on record: in vivo.
The test system of data set [14] is Mus musculus. The experiment in a line: Anticonvulsant activity of compound expressed in terms of median effective dose (ED50) produced after MES test in mouse by i.p. administration (range 19.5-28). The settings on record: ip.
Data set [15] relates to Mus musculus. In words: Anticonvulsant activity of compound expressed in terms of median effective dose (ED50) produced after ScMet test in mouse by i.p. administration (range 21.4-28.2). Particulars: ip.
In data set [16] the test system is Mus musculus. In words: Anticonvulsant activity of compound expressed in terms of median effective dose (ED50) produced after ScMet test in mouse by i.p. administration. Particulars: ip.
Data set [17] relates to Mus musculus. In words: Anticonvulsant activity of compound expressed in terms of median effective dose (ED50) produced after MES test in mouse by i.p. administration (range 17-24.5). The settings on record: ip.
The subject of data set [18] is Mus musculus. The experiment in a line: Anticonvulsant activity of compound expressed in terms of median effective dose (ED50) produced after ScMet test in mouse by i.p. administration (range 9.3-13.1). The settings on record: ip.
Data set [19] is filed under the species Mus musculus. In words: Concentration of compound producing anticonvulsant drug-inducedneurologic deficit after 0.5 hrs done by rotarod ataxia test in mouse. The settings on record: in vivo. The source holds these as a separate data set.
The test system of data set [20] is Mus musculus. In words: Anticonvulsant activity of compound expressed in terms of median effective dose (ED50) produced after ScMet test in mouse by i.p. administration (range 5.7-7.9). The settings on record: ip.
Data set [21] deals with Mus musculus. The experiment in a line: Anticonvulsant activity of compound expressed in terms of median effective dose (ED50) produced after MES test in mouse by i.p. administration (range 12.9-10.9). The settings on record: ip.
Data set [22] has as its system Mus musculus. In words: Concentration producing seizure after 4 hrs tested by MES (Maximal ElectroShock test) done after 30 min of administration in mouse.
For data set [23], the system named is Mus musculus. The experiment in a line: Concentration producing seizure after 0.5 hrs tested by ScMet (Subcutaneous pentylenetetrazole test) done after 30 min of administration of 85 mg/kg pentylenetetrazol in mouse (no activity).
For data set [24], the system named is Mus musculus. In words: Anticonvulsant activity of compound expressed in terms of median effective dose (ED50) produced after MES test in mouse by i.p. administration (range 5.5-14.1). Particulars: ip.
Data set [25] concerns Rattus norvegicus. The experiment in a line: Neurotoxicity expressed as median toxic dose (TD50) produced after Rotarod ataxia test in mouse by i.p. administration (range 62.8-72.9). It counts as functional. The settings on record: ip.
The test system of data set [26] is Mus musculus. In words: Anticonvulsant activity of compound expressed in terms of median effective dose (ED50) produced after ScMet test in mouse by i.p. administration (range 123-177). The settings on record: ip.
In data set [27] the test system is Mus musculus. In words: Anticonvulsant activity of compound expressed in terms of median effective dose (ED50) produced after MES test in mouse by i.p. administration (range 247-338). Particulars: ip.
Data set [28] deals with Mus musculus. The experiment in a line: Anticonvulsant activity of compound expressed in terms of median effective dose (ED50) produced after ScMet test in mouse by i.p. administration (range 21.6-26.7). The settings on record: ip.
In data set [29] the test system is Mus musculus. In words: Anticonvulsant activity of compound expressed in terms of median effective dose (ED50) produced after MES test in mouse by i.p. administration (range 14.8-20.4). The settings on record: ip.

Molecules are shown by their SMILES. Bounds are passed on as bounds.

As for `Fc1cccc(F)c1COc1ccc2c(c1)CCc1nncn1-2`, the DOSE entry in data set [1], in data set [2], in data set [3], in data set [4], in data set [5] and in data set [6] was “No activity” throughout.
For the compound `Fc1ccccc1COc1ccc2c(c1)CCc1nncn1-2`, the DOSE entry in data set [1], in data set [2], in data set [5] and in data set [6] was “No activity” each time. For the same compound, the Dose in data set [7] and in data set [8] was 300 mg/kg throughout.
Turning to `CCCCCCOc1ccc2c(c1)CCc1nncn1-2`, the DOSE entry in data set [1], in data set [5] and in data set [6] was “No activity” each time. Further, the Dose in data set [7] stood at 30 mg/kg; in [8] it was 30 mg/kg; in [13] it was 100 mg/kg. For the same compound, the ED50 in data set [9] was determined as 13.5 mg/kg; in data set [11], 17.7 mg/kg. For the same compound, the PI is given as 1.7 in [10] and 2.2 in data set [12].
With `CCOc1ccc2c(c1)CCc1nncn1-2`, the DOSE result in [2], in data set [3], in [4] and in data set [6] was “No activity” each time.
`Brc1cccc(COc2ccc3c(c2)CCc2nncn2-3)c1`: the ED50 in data set [14] turned out to be 23.3 mg/kg; in data set [15] it was 24.5 mg/kg. Moreover, the DOSE result in data set [1], in [5] and in [6] was “No activity” in each case. Besides, the Dose in [7] worked out at 30 mg/kg; in [8] it was 30 mg/kg; in data set [13], 100 mg/kg. Also, the PI in data set [10] worked out at 4; in data set [12], 4.2.
`c1cc2c(cc1COc1ccc3c(c1)CCc1nncn1-3)OCO2`: the DOSE result in data set [1], in [5] and in [6] was “No activity” throughout. Further, the results for the Dose in data set [7], in [8] and in data set [13] were 100 mg/kg, 100 mg/kg and 300 mg/kg, respectively.
`O=C1NC(=O)C(c2ccccc2)(c2ccccc2)N1` [PHENYTOIN]: the PI in data set [10] is given as less than 0.22. This compound also returned an ED50 in data set [16] of more than 300 mg/kg.
As to `Cc1ccc(COc2ccc3c(c2)CCc2nncn2-3)cc1`, the ED50 was 20.5 mg/kg in data set [17] and 11.1 mg/kg in data set [18]. The DOSE result in data set [1], in [5] and in data set [6] was “No activity” each time. For the same compound, the Dose stood at 30 mg/kg in [7], 30 mg/kg in [8] and 100 mg/kg in data set [13]. The PI stood at 5.9 in data set [10] and 3.2 in data set [12].
As to `Fc1ccc(COc2ccc3c(c2)CCc2nncn2-3)cc1`, the DOSE result in data set [1] and in [6] was “No activity” throughout. The Dose in [7] came to 30 mg/kg; in [19], 100 mg/kg; in [8], 30 mg/kg; in [22], 30 mg/kg. The PI is 8.1 in data set [10] and 4.6 in data set [12]. The 50% effective dose (ED50) was 6.7 mg/kg in data set [20] and 11.8 mg/kg in data set [21].
On to `CCCOc1ccc2c(c1)CCc1nncn1-2`, for which the DOSE result in [1], in data set [5] and in data set [6] was “No activity” in each case. The Dose in [7], in data set [8] and in [13] was 100 mg/kg each time.
On to `Clc1ccc(COc2ccc3c(c2)CCc2nncn2-3)cc1`, for which the DOSE entry in data set [1], in data set [2], in [5] and in [6] was “No activity” each time. The Dose in data set [7] and in data set [8] was 300 mg/kg in each case.
Consider `CCCCOc1ccc2c(c1)CCc1nncn1-2`, for which the DOSE entry in data set [1], in [5] and in data set [6] was “No activity” each time. Moreover, the Dose in data set [7], in data set [8] and in [13] was 100 mg/kg in each case.
On to `CCCCCCCCOc1ccc2c(c1)CCc1nncn1-2`, for which the Dose in data set [23] and in data set [8] was 100 mg/kg throughout. Further, the DOSE result in data set [1], in data set [2], in data set [5] and in [6] was “No activity” throughout.
Consider `COc1ccc(COc2ccc3c(c2)CCc2nncn2-3)cc1`, for which the DOSE entry in [1], in [5] and in data set [6] was “No activity” each time. Further, the Dose is 100 mg/kg in data set [7], 100 mg/kg in [8] and 300 mg/kg in data set [13].
In the case of `NC(=O)N1c2ccccc2C=Cc2ccccc21` [CARBAMAZEPINE], the values for the ED50 in data set [24] and in [16] were 8.8 mg/kg and more than 100 mg/kg, respectively. Moreover, the PI in data set [10] was less than 0.22.
`CCC1(c2ccccc2)C(=O)NC(=O)NC1=O` [PHENOBARBITAL] yielded an ED50 in [25] of 69 mg/kg.
As for `CCCCCCCCCCCCOc1ccc2c(c1)CCc1nncn1-2`, the DOSE result in [1], in [2], in [3], in [4], in [5] and in data set [6] was “No activity” in each case.
As to `CCCC(CCC)C(=O)O` [VALPROIC ACID], the ED50 in data set [26] was 149 mg/kg; in data set [27], 272 mg/kg.
As for `c1ccc(COc2ccc3c(c2)CCc2nncn2-3)cc1`, the DOSE entry in [1], in data set [5] and in data set [6] was “No activity” in each case. Besides, the Dose in data set [7] was 100 mg/kg; in data set [8], 30 mg/kg; in data set [13], 100 mg/kg. Also, the 50% effective dose (ED50) in data set [28] stood at 24 mg/kg; in data set [29], 17.3 mg/kg. Moreover, the PI in data set [10] is given as 2.6; in data set [12], 3.5.
Consider `Clc1ccc(COc2ccc3c(c2)CCc2nncn2-3)cc1Cl`, for which the DOSE entry in data set [1], in [2], in data set [3], in [4], in data set [5] and in data set [6] was “No activity” in each case.
